{"source": "patent US20210145774A1", "about": "“Treatment of alcoholic liver disease” (CymaBay Therapeutics, Inc., priority 2019, published 2021)", "key": {"[1]": {"system": "subjects with diagnosed alcoholic liver disease (alcoholic fatty liver)", "test": "Clinical (oral), subjects with alcoholic fatty liver", "type": "in vivo, human", "conditions": "oral 2-100 mg/day for 6 months", "experimental": "Subjects are permitted their usual other medications (e.g. antidiabetic medications such as metformin or […]) but not glitazones, PPAR agonists, OCA, or similar medications. […] At each visit, after a 12-hour fast, blood is drawn and urine collected; and a standard metabolic panel, complete blood count, and standard urinalysis are performed. Blood is analyzed for bilirubin, creatinine, prothrombin time (International Normalized Ratio—INR), TGs, and liver transaminases. The subjects also maintain health diaries, which are reviewed at each visit."}, "PPARα": {"molecular_target": "T1, PPARα (Homo sapiens, UniProt Q07869)", "T1 sequence (Q07869 1-468)": "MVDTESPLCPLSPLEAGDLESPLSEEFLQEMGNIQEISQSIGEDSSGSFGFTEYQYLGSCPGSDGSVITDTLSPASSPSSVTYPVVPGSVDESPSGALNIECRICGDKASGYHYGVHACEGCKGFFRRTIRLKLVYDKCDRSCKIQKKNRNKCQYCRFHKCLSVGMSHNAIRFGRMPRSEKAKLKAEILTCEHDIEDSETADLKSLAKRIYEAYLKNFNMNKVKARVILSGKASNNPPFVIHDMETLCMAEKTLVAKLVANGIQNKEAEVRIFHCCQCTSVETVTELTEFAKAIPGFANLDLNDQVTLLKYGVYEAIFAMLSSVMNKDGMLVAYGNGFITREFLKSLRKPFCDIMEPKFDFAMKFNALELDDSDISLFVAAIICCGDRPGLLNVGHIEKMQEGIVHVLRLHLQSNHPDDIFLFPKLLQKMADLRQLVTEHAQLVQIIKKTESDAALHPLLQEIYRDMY", "test": "Specificity compared with PPARα", "from_the_text": "It is specific (>600-fold and>2500-fold compared with PPARα and peroxisome proliferator-activated receptor-γreceptors). PPARδ activation stimulates fatty acid oxidation and utilization, improves plasma lipid and lipoprotein metabolism, glucose utilization, and mitochondrial respiration, and preserves stem cell homeostasis."}, "[2]": {"system": "atherogenic diet-fed obese diabetic (Alms1 mutant (foz/foz)) mice", "conditions": "foz/foz mice on atherogenic diet; cited from earlier work"}, "[3]": {"system": "wild-type female C57BL/6 mice", "test": "Lieber-DeCarli ethanol diet mouse model of alcoholic liver disease", "type": "in vivo", "conditions": "for liver histology, hematoxylin and eosin (H+E): formalin-fixed liver sections; for hepatic lipid accumulation, oil red staining: frozen liver sections; for ALT: plasma; for ALT / Total bile acids / Hepatic TGs / Plasma LPS / FA (fecal albumin): mean (SEM); for Total bile acids: LC-MS; for FA (fecal albumin): feces at 7.5 weeks", "from_the_text": "Age-matched wild-type female C57BL/6 mice (Charles River, Wilmington, Mass.), 8-9 weeks old at the initiation of the study, were used.\nThe Lieber-DeCarli ethanol diet was originally developed by Charles Lieber and Leonore DeCarli in 1963. This diet allows for the prolonged exposure of ethanol in a rodent model and allows for modification to calories provided by ethanol. […] The caloric intake from ethanol was 0% on day 1, 10% on days 2 and 3, 20% on days 4 and 5, 30% from day 6 until the end of 6 weeks, and 36% for the last 2 weeks, for a total in-life time of eight weeks. The ethanol-fed mice also received one bolus dose of 33% v/v ethanol at 5 g/Kg on the last in-life day. The control diet contained an isocaloric substitution of isomaltose for the ethanol. […] In the prevention portions of the study, including with the control diet, seladelpar was added throughout the entire study period; in the intervention portion of the study, seladelpar was added only for the fifth through eighth weeks. Fresh feces were collected at 7.5 weeks. All mice were sacrificed after eight weeks; the ethanol-fed mice eight hours after the ethanol bolus. At sacrifice, body and liver weight were recorded; and blood/plasma, liver, gallbladder, small and large intestine (wall and contents) and cecum were harvested. Analyses included plasma ALT—to measure […]; hepatic TGs; plasma lipopolysaccharides (LPS)—to measure the extent of bacterial leakage from the intestine into the blood; fecal albumin (FA)—to measure the extent of albumin leakage from the blood into the intestine (feces); and total bile acids, measured by liquid chromatography-mass spectrometry (LC-MS) generally according to the method described in Hartmann et al., “Modulation of the Intestinal Bile Acid/Farnesoid X Receptor/Fibroblast Growth Factor 15 Axis Improves Alcoholic Liver Disease in Mice”, Hepatology, 67(6), 2150-2166 (2018).\nThe study results are given in the table below: standard errors of the means are in parentheses, n denotes the number of mice measured, and ANOVA denotes the significance value of an ANOVA analysis between groups 3, 4, and 5:\nFormalin-fixed liver sections were stained for histological examination with hematoxylin and eosin (H+E).\nFrozen liver sections were cut and stained with oil red 0 for hepatic lipid accumulation analysis."}, "[4]": {"system": "subjects with diagnosed alcoholic liver disease (acute alcoholic hepatitis)", "test": "Clinical (intravenous), subjects with acute alcoholic hepatitis", "type": "in vivo, human", "conditions": "intravenous 2-100 mg/day for up to 30 days", "experimental": "At each assessment blood is drawn; and a standard metabolic panel and complete blood count are performed. Blood is analyzed for bilirubin, creatinine, prothrombin time (International Normalized Ratio—INR), TGs, liver transaminases, high sensitivity C-reactive protein (hsCRP), interleukin-18, and TNF-α."}, "[5]": {"conditions": "alcohol diet (group 3 vs groups 4 and 5, prevention and intervention)"}, "[6]": {"conditions": "alcohol diet, untreated group 3 vs seladelpar groups 4 and 5, ANOVA <0.001"}, "[7]": {"conditions": "group 2: control diet with seladelpar prevention, 10 mg/Kg/day oral, 8 weeks"}}, "data": [{"smiles": "CCO[C@H](COc1ccc(C(F)(F)F)cc1)CSc1ccc(OCC(=O)O)c(C)c1", "note": "[seladelpar, [4-({(2R)-2-ethoxy-3-[4-(trifluoromethyl)phenoxy]propyl}sulfanyl)-2-methylphenoxy]acetic acid]", "values": [{"measurement": "improvement in disease (reductions in MRI-PDFF, TGs, liver transaminases)", "setting": "[1]", "result": "dose-related improvement"}, {"measurement": "specificity for PPARδ compared with PPARα", "setting": "PPARα", "result": "> 600", "unit": "fold"}, {"measurement": "NASH pathology", "setting": "[2]", "result": "improves NASH pathology (reducing hepatic steatosis and inflammation, and improving fibrosis)"}, {"measurement": "liver histology, hematoxylin and eosin (H+E)", "setting": "[3]; [5]", "result": "significant reduction of steatosis and restoration of a more normal architecture"}, {"measurement": "hepatic lipid accumulation, oil red staining", "setting": "[3]; [5]", "result": "significant reduction of stainable lipid droplets"}, {"measurement": "change in serum ALT", "setting": "[3]; alcohol diet, untreated group 3 vs seladelpar groups 4 and 5 (prevention and intervention), ANOVA <0.001", "result": "significant reductions (improvements)"}, {"measurement": "change in serum LPS", "setting": "[3]; alcohol diet, untreated group 3 vs seladelpar groups 4 and 5, ANOVA 0.034", "result": "significant reductions (improvements)"}, {"measurement": "change in hepatic TGs", "setting": "[3]; [6]", "result": "significant reductions (improvements)"}, {"measurement": "change in total bile acids", "setting": "[3]; [6]", "result": "significant reductions (improvements)"}, {"measurement": "liver histology, hematoxylin and eosin (H+E)", "setting": "[3]; control diet (groups 1 vs 2)", "result": "no significant change"}, {"measurement": "hepatic lipid accumulation, oil red staining", "setting": "[3]; control diet (groups 1 vs 2)", "result": "no significant change"}, {"measurement": "effect on ALT, hepatic TGs, LPS, fecal albumin and total bile acids", "setting": "[3]; control diet groups, seladelpar prevention (group 2 vs 1)", "result": "does not significantly affect"}, {"measurement": "ALT", "setting": "[3]; group 2: control diet with seladelpar prevention, 10 mg/Kg/day oral in diet for 8 weeks", "result": "20.8 (3.5) U/L"}, {"measurement": "Total bile acids", "setting": "[3]; [7]", "result": "14.2 (0.6) μmol/100 g body weight"}, {"measurement": "Hepatic TGs", "setting": "[3]; [7]", "result": "18.9 (1.8) mg/g"}, {"measurement": "Plasma LPS", "setting": "[3]; [7]", "result": "787 (108) ng/mL"}, {"measurement": "FA (fecal albumin)", "setting": "[3]; group 2: control diet with seladelpar prevention, 10 mg/Kg/day oral", "result": "95 (12) ng/mg"}, {"measurement": "ALT", "setting": "[3]; group 4: ethanol diet with seladelpar prevention, 10 mg/Kg/day oral in diet for 8 weeks, untreated ethanol group 3: 83.3 (16.7)", "result": "37.8 (4.1) U/L"}, {"measurement": "Total bile acids", "setting": "[3]; group 4: ethanol diet with seladelpar prevention, 10 mg/Kg/day oral, 8 weeks, group 3: 23.7 (1.6)", "result": "16.5 (1.1) μmol/100 g body weight"}, {"measurement": "Hepatic TGs", "setting": "[3]; group 4: ethanol diet with seladelpar prevention, 10 mg/Kg/day oral, 8 weeks, group 3: 29.6 (2.0)", "result": "21.8 (1.3) mg/g"}, {"measurement": "Plasma LPS", "setting": "[3]; group 4: ethanol diet with seladelpar prevention, 10 mg/Kg/day oral, 8 weeks, group 3: 1064 (204)", "result": "723 (66) ng/mL"}, {"measurement": "FA (fecal albumin)", "setting": "[3]; group 4: ethanol diet with seladelpar prevention, 10 mg/Kg/day oral, group 3: 135 (15)", "result": "98 (8) ng/mg"}, {"measurement": "FA (fecal albumin)", "setting": "[3]; group 5: ethanol diet with seladelpar intervention, 10 mg/Kg/day oral from week 5, group 3: 135 (15)", "result": "112 (9) ng/mg"}, {"measurement": "ALT", "setting": "[3]; group 5: ethanol diet with seladelpar intervention, 10 mg/Kg/day oral in diet, weeks 5-8, untreated ethanol group 3: 83.3 (16.7)", "result": "30.9 (4.1) U/L"}, {"measurement": "Total bile acids", "setting": "[3]; group 5: ethanol diet with seladelpar intervention, 10 mg/Kg/day oral, weeks 5-8, group 3: 23.7 (1.6)", "result": "16.0 (1.1) μmol/100 g body weight"}, {"measurement": "Hepatic TGs", "setting": "[3]; group 5: ethanol diet with seladelpar intervention, 10 mg/Kg/day oral, weeks 5-8, group 3: 29.6 (2.0)", "result": "20.5 (1.3) mg/g"}, {"measurement": "Plasma LPS", "setting": "[3]; group 5: ethanol diet with seladelpar intervention, 10 mg/Kg/day oral, weeks 5-8, group 3: 1064 (204)", "result": "634 (59) ng/mL"}, {"measurement": "improvement in disease (reduction in liver transaminases, hsCRP, interleukin-18, TNF-α, Maddrey's discriminant function, MELD score)", "setting": "[4]", "result": "dose-related improvement"}]}]}
